Experimental findings from ChEMBL document CHEMBL5365439, “Development of a Selective Peptide κ-Opioid Receptor Antagonist by Late-Stage Functionalization with Cysteine Staples” (J Med Chem, 2023) are described below.

By Ki is commonly meant the dissociation constant of the complex between target and ligand, obtained from inhibition or displacement. A word on the EC50: it is the concentration needed to bring the measured effect to its halfway point.

Data set [1] is described as follows: Stability in human serum assessed as degradation at 3 mg/ml measured after 15 mins by RP-HPLC analysis. It counts as ADME, cell-free.
In data set [2] the target is Kappa-type opioid receptor (Mus musculus) (UniProt P33534). Briefly: Antagonist activity at mouse KOR expressed in HEK293 cells coexpressing EGFP/beta-arrestin2 fused NanoLuc assessed as reduction in beta-arrestin2 recruitment at 10 uM preincubated with furimazine for 5 mins followed by peptide addition and measured for 30 mins by BRET assay. It counts as functional, cell-based. A general note: Activated receptors often draw arrestin, which recruitment assays turn into a signal.

For data set [3], the system named is Mus musculus. Briefly: In vivo antagonist activity at KOR in CD-1 mouse model of U50,488 induced acute thermal nociception at 10 mg/kg, sc pretreated for 24 hrs followed by U50,488 stimulation and measured after 30 to 60 mins by radiant heat tail flick assay. It counts as functional, organism-based. The note with it: time lower 24.5 hrs, time upper […]. Background: In hot-plate and tail-flick tests a longer latency is read as antinociception.

Data set [4] concerns the target Delta-type opioid receptor (Mus musculus) (UniProt P32300). Description: Displacement of [3H]diprenorphine from mouse DOR expressed in HEK293 cell membrane at 10 uM incubated for 1 hr by radioligand displacement assay. It counts as cell membranes.
In data set [5] the target is Mu-type opioid receptor (Mus musculus) (UniProt P42866). Description: Displacement of [3H]diprenorphine from mouse MOR expressed in HEK293 cell membrane at 10 uM incubated for 1 hr by radioligand displacement assay. It counts as cell membranes. A general note: Loss of bound radioactivity is the signal in a displacement assay; it reports binding, not function.
Data set [6] has as its target T1, Kappa-type opioid receptor (Mus musculus, UniProt P33534). Briefly: Competitive antagonist activity at mouse KOR expressed in HEK293 cells at 0.3 to 10 uM preincubated for 30 mins followed by U50,488 addition and measured after 30 mins by fluorescence based schild regression analysis. It counts as functional, cell-based. The note with it: read-out: pA2 (converted).

The target in data set [7] is Kappa-type opioid receptor (Mus musculus) (UniProt P33534). Briefly: Antagonist activity at KOR in C57BL/6 mouse DRG neurons assessed as inhibition of U50,488 induced calcium mobilization at 1 to 10 uM preincubated with compound followed by U50,488 addition and measured for 12 mins by single cell calcium microfluorimetry analysis. It counts as functional, cell-based. As to conditions: DRG neuron, filed as antagonist, dose 1-10 µM.

Data set [8] concerns Mus musculus. Briefly: In vivo antagonist activity at KOR in CD-1 mouse model of U50,488 induced acute thermal nociception at 20 mg/kg, sc pretreated for 15 mins followed by U50,488 stimulation and measured after 30 to 60 mins by radiant heat tail flick assay. As to conditions: time 45-75 min. It counts as functional, organism-based.
Data set [9] relates to Mus musculus. Briefly: In vivo antagonist activity at KOR in CD-1 mouse model assessed as reversal of U50,488 induced motor impairment by measuring increase in latency to fall at 20 mg/kg, sc pretreated for 15 mins followed by U50,488 stimulation and measured at 30 mins by rotarod assay. As to conditions: time 45.0 min. It counts as functional, organism-based.
Data set [10] concerns the target T1, Kappa-type opioid receptor. Briefly: Displacement of [3H]diprenorphine from mouse KOR expressed in HEK293 cell membrane assessed as inhibition constant incubated for 1 hr by radioligand displacement assay. It counts as cell membranes.
The target in data set [11] is Kappa-type opioid receptor (Mus musculus) (UniProt P33534). Briefly: Antagonist activity at mouse KOR expressed in HEK293 cells assessed as forskolin-induced adenylyl cyclase-dependent cAMP formation at 10 uM incubated for 30 mins by HTRF analysis. It counts as functional, cell-based. As to conditions: filed as antagonist.
The target is the same in data set [12]. Briefly: Antagonist activity at mouse KOR expressed in HEK293 cells coexpressing EGFP/beta-arrestin2 fused NanoLuc assessed as reduction in beta-arrestin2 recruitment by measuring residual BRET signal at 10 uM preincubated with furimazine for 5 mins followed by peptide addition and measured for 30 mins by BRET assay relative to control. The note with it: filed as antagonist. It counts as functional, cell-based.

Data set [13] addresses T1, Kappa-type opioid receptor. Briefly: Modulation of mouse KOR expressed in HEK293 cells assessed as inhibition of forskolin-induced adenylyl cyclase-dependent cAMP formation incubated for 30 mins by HTRF analysis. It counts as functional, cell-based.
Data set [14] concerns the target T1, Kappa-type opioid receptor. Briefly: Partial agonist activity at mouse KOR expressed in HEK293 cells assessed as inhibition of forskolin-induced adenylyl cyclase-dependent cAMP formation incubated for 30 mins by HTRF analysis. It counts as functional, cell-based.

Each structure is given as a SMILES string. Calls of active or inactive are those of the source. The rule behind the calls is not given here. Numbered stars: 1 amine (or outer) side, 2 acyl side, 3 side chain; on linkers, the order of the positions; unused ones are H or OH. Bridge positions count the residues as written; N and C are the ends. Square brackets hold non-standard residues; d marks the D form. Peptide text beside a SMILES is read from it. CH2COCH2 = O=C(C[*:1])C[*:2]; CH2 = C([*:1])[*:2]; Mpa = O=C(O)CCS

Regarding `CC[C@H](C)[C@H](NC(=O)[C@H](CCCN=C(N)N)NC(=O)[C@H](CCCN=C(N)N)NC(=O)[C@H](CC(C)C)NC(=O)[C@H](Cc1ccccc1)NC(=O)CNC(=O)CNC(=O)[C@@H](N)Cc1ccc(O)cc1)C(=O)N[C@@H](CCCN=C(N)N)C(=O)N1CCC[C@H]1C(=O)N[C@@H](CCCCN)C(=O)N[C@@H](CC(C)C)C(=O)N[C@@H](CCCCN)C(N)=O`, in data set [1], the Stability entry is “Unstable”. The outcome in data set [2] was inactive.

Regarding `Oc1ccc2c3c1O[C@H]1c4[nH]c5c(c4C[C@@]4(O)[C@@H](C2)N(CC2CC2)CC[C@]314)C[C@@]1(O)[C@H]2Cc3ccc(O)c4c3[C@@]1(CCN2CC1CC1)[C@H]5O4`, in data set [3], the result was Active.

In the case of `CC(C)C[C@H](NC(=O)[C@H](CCCCN)NC(=O)[C@@H]1CCCN1C(=O)[C@H](CCCNC(=N)N)NC(=O)[C@@H]1CSCSCCC(=O)N[C@@H](Cc2ccc(O)cc2)C(=O)NCC(=O)NCC(=O)N[C@@H](Cc2ccccc2)C(=O)N[C@@H](CC(C)C)C(=O)N[C@@H](CCCNC(=N)N)C(=O)N[C@@H](CCCNC(=N)N)C(=O)N1)C(=O)N[C@@H](CCCCN)C(N)=O` ([Mpa]YGGFLRRCRPKLK-NH2; linker 1-9 via CH2), the result in [4] and in [5] was inactive. Moreover, the Kb in [6] was 31.6 nM. Moreover, the outcome in data set [7], in data set [8], in [9] and in data set [11] was Active. In data set [10], the Ki came out at 6.8 nM. Further, the Activity in data set [12] came out at 5%.

For the compound `CC(C)C[C@H](NC(=O)[C@H](CCCCN)NC(=O)[C@@H]1CCCN1C(=O)[C@H](CCCNC(=N)N)NC(=O)[C@@H]1CSCC(=O)CSCCC(=O)N[C@@H](Cc2ccc(O)cc2)C(=O)NCC(=O)NCC(=O)N[C@@H](Cc2ccccc2)C(=O)N[C@@H](CC(C)C)C(=O)N[C@@H](CCCNC(=N)N)C(=O)N[C@@H](CCCNC(=N)N)C(=O)N1)C(=O)N[C@@H](CCCCN)C(N)=O` ([Mpa]YGGFLRRCRPKLK-NH2; linker 1-9 via CH2COCH2), the result in [4] and in [5] was inactive. Also, in data set [10], the Ki was found to be 32 nM. Besides, the EC50 in [13] was 740 nM. The Activity in data set [12] came out at 25%.

Consider `CC(C)C[C@H](NC(=O)[C@H](CCCCN)NC(=O)[C@@H]1CCCN1C(=O)[C@H](CCCNC(=N)N)NC(=O)[C@@H]1CSSCCC(=O)N[C@@H](Cc2ccc(O)cc2)C(=O)NCC(=O)NCC(=O)N[C@@H](Cc2ccccc2)C(=O)N[C@@H](CC(C)C)C(=O)N[C@@H](CCCNC(=N)N)C(=O)N[C@@H](CCCNC(=N)N)C(=O)N1)C(=O)N[C@@H](CCCCN)C(=O)O` ([Mpa]YGGFLRRCRPKLK-OH; disulfide 1-9), for which the result in data set [2] was inactive.

For `CC(C)C[C@H](NC(=O)[C@H](CCCCN)NC(=O)[C@@H]1CCCN1C(=O)[C@H](CCCNC(=N)N)NC(=O)[C@@H]1CSCSCCC(=O)N[C@@H](Cc2ccc(O)cc2)C(=O)NCC(=O)NCC(=O)N[C@@H](Cc2ccccc2)C(=O)N[C@@H](CC(C)C)C(=O)N[C@@H](CCCNC(=N)N)C(=O)N[C@@H](CCCNC(=N)N)C(=O)N1)C(=O)N[C@@H](CCCCN)C(=O)O` ([Mpa]YGGFLRRCRPKLK-OH; linker 1-9 via CH2), the result in data set [4] and in data set [5] was inactive. Moreover, in data set [1], the Stability entry is “Unstable”. For the same compound, the Ki in data set [10] worked out at 77 nM. For the same compound, the result in [2] (filed as antagonist) and in data set [11] was Active.

On to `CC(C)C[C@H](NC(=O)[C@H](CCCCN)NC(=O)[C@@H]1CCCN1C(=O)[C@H](CCCNC(=N)N)NC(=O)[C@@H]1CSCC(=O)CSCCC(=O)N[C@@H](Cc2ccc(O)cc2)C(=O)NCC(=O)NCC(=O)N[C@@H](Cc2ccccc2)C(=O)N[C@@H](CC(C)C)C(=O)N[C@@H](CCCNC(=N)N)C(=O)N[C@@H](CCCNC(=N)N)C(=O)N1)C(=O)N[C@@H](CCCCN)C(=O)O` ([Mpa]YGGFLRRCRPKLK-OH; linker 1-9 via CH2COCH2), for which the outcome in data set [4] and in [5] was inactive. Moreover, the Stability entry in data set [1] is given as “Unstable”. For the same compound, the Ki in data set [10] worked out at 91 nM. The result in data set [2] (filed as antagonist) was Active. Further, the EC50 in [14] is 270 nM.

As to `CC[C@H](C)[C@@H]1NC(=O)[C@H](CCCNC(=N)N)NC(=O)[C@H](CCCNC(=N)N)NC(=O)[C@H](CC(C)C)NC(=O)[C@H](Cc2ccccc2)NC(=O)CNC(=O)CNC(=O)[C@H](Cc2ccc(O)cc2)NC(=O)CCSCSC[C@@H](C(=O)N[C@@H](CCCCN)C(=O)N[C@@H](CC(C)C)C(=O)N[C@@H](CCCCN)C(N)=O)NC(=O)[C@H](CCCNC(=N)N)NC1=O` ([Mpa]YGGFLRRIRCKLK-NH2; linker 1-11 via CH2), the result in [4] and in data set [5] was inactive.

As for `CC[C@H](C)[C@@H]1NC(=O)[C@H](CCCNC(=N)N)NC(=O)[C@H](CCCNC(=N)N)NC(=O)[C@H](CC(C)C)NC(=O)[C@H](Cc2ccccc2)NC(=O)CNC(=O)CNC(=O)[C@H](Cc2ccc(O)cc2)NC(=O)CCSCSC[C@@H](C(=O)N[C@@H](CCCCN)C(=O)N[C@@H](CC(C)C)C(=O)N[C@@H](CCCCN)C(=O)O)NC(=O)[C@H](CCCNC(=N)N)NC1=O` ([Mpa]YGGFLRRIRCKLK-OH; linker 1-11 via CH2), the outcome in data set [4] and in [5] was inactive. Besides, the Stability result in data set [1] is recorded as “Unstable”. For the same compound, the outcome in data set [2] (filed as antagonist) and in [11] was Active.

As to `CC[C@H](C)[C@@H]1NC(=O)[C@H](CCCNC(=N)N)NC(=O)[C@H](CCCNC(=N)N)NC(=O)[C@H](CC(C)C)NC(=O)[C@H](Cc2ccccc2)NC(=O)CNC(=O)CNC(=O)[C@H](Cc2ccc(O)cc2)NC(=O)CCSCC(=O)CSC[C@@H](C(=O)N[C@@H](CCCCN)C(=O)N[C@@H](CC(C)C)C(=O)N[C@@H](CCCCN)C(=O)O)NC(=O)[C@H](CCCNC(=N)N)NC1=O` ([Mpa]YGGFLRRIRCKLK-OH; linker 1-11 via CH2COCH2), in [2], the outcome was inactive.
